Source: patent publication US20260137697A1, “THIAZOLO[5,4-D]PYRIMIDINE COMPOUNDS, COMPOSITIONS COMPRISING THEM AND USES THEREOF” (University de Montreal, priority 2022, published 2026)

Columns and labels:
BRAF = biological target: T1, BRAF (Homo sapiens, UniProt P15056); assay: BRAF kinase activity assay (ADP-Glo); assay type: biochemical; conditions: Table 3; 10 μM ATP, kinase-dead MEK1 substrate
T1 construct: GST; purchased Millipore Sigma B4062-10UG
Summary of the method: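 GST-tagged kinase (0.375 nM) with 75 nM kinase-dead MEK1 and 10 μM ATP in HEPES pH 7.5 buffer, 2 h at 30° C, nine concentrations 100–0.01 nM, 0.05% DMSO. ADP-Glo luminescence; % inhibition vs DMSO and substrate-only blanks, IC50 by four-parameter fit.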

A101D cells = assay: Proliferation inhibition, CellTiter-Glo, A101D; assay type: cell-based, human; conditions: Table D-1; A101D (BRAF V600E), 3 days; read-out: Prolif. (proliferation EC50)
Description: All cancer cell lines (A375, A101D, A2058, RKO, HT29 SK-MEL 30, IPC298, HepG2, HCT-116, Lovo, SW620, SW480, NCI-H358, NCI-H2122, Calu-6, NCIH2087, NCIH1755, NCIH1666 and Mewo) were obtained from ATCC and cultured in RPM1-1640 medium (Gibco) supplemented with 5% heat inactivated fetal bovine serum (FBS, Wisent) at 37° C. under 5% CO2. Cells were maintained in T175 flasks (Greiner). They were passaged by removing the culture medium, washing once in 10 mL of room temperature Phosphate Buffered Saline (PBS; Wisent) and incubating at 37° C. with 2 mL of 0.05% Trypsin (Thermo-Fisher). […]
After 3 days of incubation, the growth media were removed by aspiration and 60 μL of diluted CellTiter-Glo® reagent (10 μL CellTiter-Glo® reagent+50 μL of PBS) was added to each well. […] Luminescence signals were then acquired on a Synergy Neo2 plate reader (Biotek).
The effect of each compound dilution on the proliferation of cancer cell lines was expressed in % inhibition and calculated as follows. […]
The ability of each compound to inhibit proliferation was expressed as a EC50 value obtained by plotting the effect values for each data point of a dilution series and fitting the obtained curves using a log(agonist) versus response—variable slope (four parameters) function using GraphPadPrism (V7.0) or Dotmatics Screening Ultra platform.

T1 sequence (P15056 whole entry): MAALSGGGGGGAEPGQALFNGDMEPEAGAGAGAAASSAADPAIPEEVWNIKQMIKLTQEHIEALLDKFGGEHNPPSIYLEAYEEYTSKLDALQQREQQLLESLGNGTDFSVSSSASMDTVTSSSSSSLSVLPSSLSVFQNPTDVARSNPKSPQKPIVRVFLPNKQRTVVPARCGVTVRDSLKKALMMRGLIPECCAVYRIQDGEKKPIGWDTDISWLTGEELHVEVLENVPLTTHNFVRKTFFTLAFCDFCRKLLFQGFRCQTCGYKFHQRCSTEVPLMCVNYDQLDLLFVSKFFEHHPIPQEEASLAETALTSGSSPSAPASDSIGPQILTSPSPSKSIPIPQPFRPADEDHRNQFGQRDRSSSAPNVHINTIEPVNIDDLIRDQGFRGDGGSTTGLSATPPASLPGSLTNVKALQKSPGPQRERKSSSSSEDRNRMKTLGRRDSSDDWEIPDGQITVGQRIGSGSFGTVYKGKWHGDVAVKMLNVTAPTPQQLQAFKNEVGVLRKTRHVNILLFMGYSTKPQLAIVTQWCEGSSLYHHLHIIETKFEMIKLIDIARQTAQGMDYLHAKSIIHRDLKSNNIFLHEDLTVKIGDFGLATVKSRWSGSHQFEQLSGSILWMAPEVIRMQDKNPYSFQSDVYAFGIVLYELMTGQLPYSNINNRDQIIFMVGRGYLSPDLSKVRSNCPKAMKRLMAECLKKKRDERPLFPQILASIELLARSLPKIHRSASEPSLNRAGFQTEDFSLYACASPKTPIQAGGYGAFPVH

IC50 (BRAF) [nM]	SMILES	EC50 (A101D cells) [nM]
< 1	Cc1c(F)cccc1S(=O)(=O)Nc1ccc(F)c(Nc2ncnc3sc(-n4cc(C(=O)N5C6CCC5CN(C)C6)c5ccccc54)nc23)c1F [Example 44]	< 300
1 to 10	N#CC1(c2cccc3c2ncn3-c2nc3c(Nc4c(F)ccc(NS(=O)(=O)c5cccc(Cl)c5Cl)c4F)ncnc3s2)CC1 [Example 122]	< 300
